The text below walks through data of paper PMC8406319, “The dCache Chemoreceptor TlpA of Helicobacter pylori Binds Multiple Attractant and Antagonistic Ligands via Distinct Sites” (mBio, 2021).

Assay [1] relates to H. pylori PMSS1 WT. Description: Temporal chemotaxis assay (live-cell video microscopy, direction changes), WT. The assay is classed as cell-based, Helicobacter pylori. The following applies: for Chemotactic response (direction changes vs mock): WT, 0.1, 1, 10 mM tested, acidic ligand stocks pH neutralized with NaOH, 10 mM most significant; for Chemotactic response, ligand stock pH not adjusted: acidic in solution, unadjusted pH. On the procedure:
H. pylori chemotactic responses toward the seven putative TlpA-dependent ligands were examined by a live-cell video microscopy assay that measures the temporal chemotaxis response to test ligands. […] Acidic conditions are sensed by chemoreceptors other than TlpA ([24], [29], [31]) and potentially mask chemotactic responses to the ligands being tested.
Cultures of H. pylori PMSS1 WT and ΔtlpA strains were grown overnight, back-diluted, and then incubated until an OD600 of 0.12 to 0.15 was reached. Cultures were treated with water (Mock) or various concentrations of compounds, as indicated. […] The cells were immediately filmed, and direction changes were counted over a 3-s swimming period in at least 100 cells per treatment from 3 biological replicates. Data are normalized to the values for the untreated control for each strain, as described in Materials and Methods. Error bars represent the standard errors of the means. *, P < 0.05; **, P < 0.01; ***, P < 0.001 (comparisons to the untreated control per strain using two-way ANOVA with Dunnett’s multiple-comparison test).
Swimming behavior assays were done with H. pylori PMSS1 strains grown in BB10 as described above. Cultures grown overnight were diluted to an optical density at 600 nm (OD600) of 0.1 in fresh BB10 and then incubated with shaking as described above until an OD600 of 0.12 to 0.15 was reached. […] The number of direction changes in a bacterial swimming trajectory was enumerated over a 3-s interval to determine whether each putative ligand is sensed as an attractant or repellent or elicits no response ([20], [25][–][30]). […] Each control is sensed by chemoreceptors other than TlpA ([24], [25], [29], [31]). The pH of BB10 upon treatment was independently assessed using a Denver Instruments pH meter. […] Therefore, to be able to compare the results to those of previous experiments, we continued resuspending acidified ligands in pure water and then adjusting the pH of the resuspended ligand using NaOH. Cultures were filmed immediately after ligand addition at a ×400 magnification using a Hamamatsu C4742-95 digital camera with μManager software (version 1.4.22), mounted on a Nikon Eclipse E600 phase-contrast microscope. For the competition chemotaxis assay, cultures of H. pylori and ligands were prepared as described above. However, 1 min after the addition of a nonchemoactive ligand at a final concentration of 10 mM, a chemoactive ligand was added at a final concentration of 10 mM, and the cultures were then filmed as described above. Videos were relabeled to blind the observer to the strain identity. For each sample, >100 3-s-long bacterial tracks from three independent cultures were analyzed manually to identify stops followed by direction changes. Data for all biological replicates under each condition were combined, and the average number of direction changes in 3 s and the standard error of the mean were calculated. For each strain, data were normalized to the values for the untreated control under each experimental condition. Statistical analysis of the data for treated versus untreated samples was performed using two-way analysis of variance (ANOVA) and Dunnett’s multiple-comparison test.

The test system of assay [2] is H. pylori PMSS1 ΔtlpA. Description: Temporal chemotaxis assay (direction changes), ΔtlpA mutant. The following applies: ligands 0.1-10 mM, controls 50 μM dipyridyl, 10 mM HCl. The assay is classed as cell-based, Helicobacter pylori. As for the experimental part:
Cultures of H. pylori PMSS1 WT and ΔtlpA strains were grown overnight, back-diluted, and then incubated until an OD600 of 0.12 to 0.15 was reached. Cultures were treated with water (Mock) or various concentrations of compounds, as indicated. For panels C and E, the pH of cysteine, thiamine, malic acid, and α-ketoglutarate stocks was adjusted using NaOH to match the pH of the water used for the untreated control. The cells were immediately filmed, and direction changes were counted over a 3-s swimming period in at least 100 cells per treatment from 3 biological replicates. Data are normalized to the values for the untreated control for each strain, as described in Materials and Methods. Error bars represent the standard errors of the means. *, P < 0.05; **, P < 0.01; ***, P < 0.001 (comparisons to the untreated control per strain using two-way ANOVA with Dunnett’s multiple-comparison test).
To determine if chemoattractant responses toward arginine, fumarate, and cysteine were TlpA dependent, the same tracking experiments were repeated with a mutant lacking tlpA (ΔtlpA).
Swimming behavior assays were done with H. pylori PMSS1 strains grown in BB10 as described above. Cultures grown overnight were diluted to an optical density at 600 nm (OD600) of 0.1 in fresh BB10 and then incubated with shaking as described above until an OD600 of 0.12 to 0.15 was reached. […] The number of direction changes in a bacterial swimming trajectory was enumerated over a 3-s interval to determine whether each putative ligand is sensed as an attractant or repellent or elicits no response ([20], [25][–][30]). […] Each control is sensed by chemoreceptors other than TlpA ([24], [25], [29], [31]). The pH of BB10 upon treatment was independently assessed using a Denver Instruments pH meter. Prior to realizing that chemotactic responses may be due to medium acidification, we resuspended all ligands in pure water. Therefore, to be able to compare the results to those of previous experiments, we continued resuspending acidified ligands in pure water and then adjusting the pH of the resuspended ligand using NaOH. Cultures were filmed immediately after ligand addition at a ×400 magnification using a Hamamatsu C4742-95 digital camera with μManager software (version 1.4.22), mounted on a Nikon Eclipse E600 phase-contrast microscope. For the competition chemotaxis assay, cultures of H. pylori and ligands were prepared as described above. However, 1 min after the addition of a nonchemoactive ligand at a final concentration of 10 mM, a chemoactive ligand was added at a final concentration of 10 mM, and the cultures were then filmed as described above. Videos were relabeled to blind the observer to the strain identity. For each sample, >100 3-s-long bacterial tracks from three independent cultures were analyzed manually to identify stops followed by direction changes. Data for all biological replicates under each condition were combined, and the average number of direction changes in 3 s and the standard error of the mean were calculated. For each strain, data were normalized to the values for the untreated control under each experimental condition. Statistical analysis of the data for treated versus untreated samples was performed using two-way analysis of variance (ANOVA) and Dunnett’s multiple-comparison test.

Where a name gives a salt, the structure may show the parent alone.

Regarding `N=C(N)NCCC[C@H](N)C(=O)O` [Arginine, L-arginine monohydrochloride], the “Chemotactic response (direction changes vs mock)” value in assay [1] was “fewer direction changes”. Moreover, the “Chemotactic response of ΔtlpA mutant” value in assay [2] is reported as “failed to exhibit a chemotactic response”.

`N[C@@H](CS)C(=O)O` [Cysteine, L-cysteine hydrochloride monohydrate]: in assay [1], the “Chemotactic response (direction changes vs mock)” value is recorded as “fewer direction changes” and the “Chemotactic response, ligand stock pH not adjusted” value is reported as “significant TlpA-independent chemorepellent responses”. Further, the “Chemotactic response of ΔtlpA mutant” value in assay [2] is “failed to exhibit a chemotactic response”.

As for `O=C(O)/C=C/C(=O)O` [Fumarate, sodium fumarate], in assay [1], the “Chemotactic response (direction changes vs mock)” value was “fewer direction changes”. Besides, the “Chemotactic response of ΔtlpA mutant” value in assay [2] is recorded as “failed to exhibit a chemotactic response”.

As for `N[C@H]1C(O)O[C@H](CO)[C@@H](O)[C@@H]1O` (stereo partly drawn) [Glucosamine, D(+)-glucosamine hydrochloride], the “Chemotactic response (direction changes vs mock)” value in assay [1] is “no significant direction changes”.

For the compound `O=C(O)C[C@H](O)C(=O)O` [Malic acid, L-malic acid], in assay [1], the “Chemotactic response (direction changes vs mock)” value was “no significant direction changes” and the “Chemotactic response, ligand stock pH not adjusted” value was “significant TlpA-independent chemorepellent responses”.

With `Cc1ncc(C[n+]2csc(CCO)c2C)c(N)n1` [Thiamine, thiamine hydrochloride], in assay [1], the “Chemotactic response (direction changes vs mock)” value was “no significant direction changes” and the “Chemotactic response, ligand stock pH not adjusted” value is “significant TlpA-independent chemorepellent responses”.
